In brackets after ≈: the same amount, converted by molar mass. Like-named read-outs stand apart in the source and are kept apart here.
How the values were obtained:
[1] = system: ANKA strain of P. berghei; assay: Single dose STI in vivo screen in infected mice; parameters: species or system Plasmodium berghei; details: for Survival (days) 10 mg/kg po: single 10 mg/kg po in 3% ethanol and 7% Tween 80; for Survival (days) 10 mg/kg po / Survival (days) 10 mg/kg SSV po / Survival (days) 10 mg/kg sc: untreated 6-7 days; for Activity (%) 10 mg/kg po: single 10 mg/kg po in 3% ethanol and 7% Tween 80 on day 1 post-infection; for Activity (%) 10 mg/kg po / Activity (%) 10 mg/kg SSV po / Activity (%) 10 mg/kg sc / Activity (%) 3 mg/kg SSV po: percent reduction in parasitemia on day 3; for Survival (days) 10 mg/kg SSV po: single 10 mg/kg po in SSV; for Activity (%) 10 mg/kg SSV po: single 10 mg/kg po in standard suspending vehicle (SSV) on day 1 post-infection; for Survival (days) 10 mg/kg sc: single 10 mg/kg sc in 3% ethanol and 7% Tween 80; for Activity (%) 10 mg/kg sc: single 10 mg/kg sc in 3% ethanol and 7% Tween 80 on day 1 post-infection; for Survival (days) 3 mg/kg SSV po / Activity (%) 3 mg/kg SSV po: single 3 mg/kg po in SSV
[2] = system: chloroquine-sensitive NF54 strain of P. falciparum; assay: In vitro antimalarial semiautomated microdilution assay ([3H]-hypoxanthine incorporation), NF54 strain; assay type: cell-based, Plasmodium falciparum; details: Plasmodium falciparum
Method in brief: (§1)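 Logit regression analysis yields the fifty percent inhibitory concentration. Compounds are tested by semiautomated microdilution on intraerythrocytic parasites drawn from asynchronous stock cultures, measuring [3H]-hypoxanthine incorporation.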

[3] = system: chloroquine-resistant K1 strain of P. falciparum; assay: In vitro antimalarial semiautomated microdilution assay ([3H]-hypoxanthine incorporation), K1 strain; assay type: cell-based, Plasmodium falciparum; details: Plasmodium falciparum
Method in brief: as §1

[4] = chloroquine-sensitive NF54 strain, 72 h incubation, read-out: IC50 (ng/ml) NF54
[5] = chloroquine-resistant K1 strain, 72 h incubation, read-out: IC50 (ng/ml) K1
[6] = NF54, 72 h, read-out: IC50 (ng/ml) NF54, chloroquine-sensitive NF54 strain, 72 h incubation
[7] = K1, 72 h, read-out: IC50 (ng/ml) K1, chloroquine-resistant K1 strain, 72 h incubation

Compound	Survival (days) 10 mg/kg po [1]	Activity (%) 10 mg/kg po [1]	Survival (days) 10 mg/kg SSV po [1]	Activity (%) 10 mg/kg SSV po [1]	Survival (days) 10 mg/kg sc [1]	Activity (%) 10 mg/kg sc [1]	IC50 [2, 4]	IC50 [3, 5]	IC50 [2, 6]	IC50 [3, 7]	Survival (days) 3 mg/kg SSV po [1]	Activity (%) 3 mg/kg SSV po [1]
Clc1ccc2c(NCCNC3CCC4(CC3)OOC3(O4)C4CC5CC(C4)CC3C5)ccnc2c1 (stereo not drawn) [OZ258]	6.0 days	75%	6.0 days	70%	10.7 days	99.95%	5.2 ng/mL (≈ 10.7 nM)	5.8 ng/mL (≈ 12 nM)				
CCOC(=O)CCC[C@H]1CC[C@]2(CC1)OOC1(O2)C2CC3CC(C2)CC1C3 (stereo partly drawn) [OZ260]	6.7 days	72%	7.0 days	51%	7.7 days	81%	4.3 ng/mL (≈ 11.4 nM)	5.6 ng/mL (≈ 14.8 nM)				
O=C(O)CCC[C@H]1CC[C@]2(CC1)OOC1(O2)C2CC3CC(C2)CC1C3 (stereo partly drawn) [OZ261]	7.0 days	61%	7.0 days	47%	8.0 days	92%	18 ng/mL (≈ 51.4 nM)	39 ng/mL (≈ 111 nM)				
CC(=O)NC[C@H]1CC[C@]2(CC1)OOC1(O2)C2CC3CC(C2)CC1C3 (stereo partly drawn) [OZ262]	11.7 days	96%	12.3 days	98%	10.0 days	99.39%	0.84 ng/mL (≈ 2.5 nM)	0.63 ng/mL (≈ 1.88 nM)				
O=C(NC[C@H]1CC[C@]2(CC1)OOC1(O2)C2CC3CC(C2)CC1C3)c1c[nH]cn1 (stereo partly drawn) [OZ263]	13.0 days	99.53%	13.3 days	99.45%	11.0 days	99.92%	1.1 ng/mL (≈ 2.84 nM)	0.84 ng/mL (≈ 2.17 nM)				
O=C(NC[C@H]1CC[C@]2(CC1)OOC1(O2)C2CC3CC(C2)CC1C3)c1cc[n+]([O-])cc1 (stereo partly drawn) [OZ264]	11.0 days	99.61%	10.3 days	99.92%	13.7 days	99.97%	1.5 ng/mL (≈ 3.62 nM)	1.2 ng/mL (≈ 2.9 nM)				
NC(=O)NC[C@H]1CC[C@]2(CC1)OOC1(O2)C2CC3CC(C2)CC1C3 (stereo partly drawn) [OZ265]	13.0 days	99%	9.7 days	98%	11.7 days	99.67%	1.6 ng/mL (≈ 4.76 nM)	0.56 ng/mL (≈ 1.66 nM)				
CN(C)C(=O)NC[C@H]1CC[C@]2(CC1)OOC1(O2)C2CC3CC(C2)CC1C3 (stereo partly drawn) [OZ266]	13.7 days	99%	11.7 days	99.39%	11.7 days	99.75%	1.5 ng/mL (≈ 4.12 nM)	1.1 ng/mL (≈ 3.02 nM)				
CN1CCN(C(=O)NC[C@H]2CC[C@]3(CC2)OOC2(O3)C3CC4CC(C3)CC2C4)CC1 (stereo partly drawn) [OZ267]	8.3 days	99.92%	8.7 days	99.89%	9.3 days	99.97%	0.34 ng/mL (≈ 0.81 nM)	0.2 ng/mL (≈ 0.477 nM)				
NC(=O)C(=O)NC[C@H]1CC[C@]2(CC1)OOC1(O2)C2CC3CC(C2)CC1C3 (stereo partly drawn) [OZ268, N-(cis-Adamantane-2-spiro-3′-1′,2′,4′-trioxaspiro[4.5]decane-8′-methyl)oxamide]	9.3 days	99.86%	13.3 days	99.47%	9.7 days	99.92%	0.71 ng/mL (≈ 1.95 nM)	0.44 ng/mL (≈ 1.21 nM)				
NC[C@H]1CC[C@@]2(CC1)OOC1(O2)C2CC3CC(C2)CC1C3 (stereo partly drawn) [OZ269]	10.7 days	98%	11.3 days	86%	9.0 days	99.92%	0.61 ng/mL (≈ 2.08 nM)	0.32 ng/mL (≈ 1.09 nM)				
O=C(NC[C@H]1CC[C@]2(CC1)OOC1(O2)C2CC3CC(C2)CC1C3)c1cccc[n+]1[O-] (stereo partly drawn) [OZ270]	13.7 days	99.17%	12.3 days	99.47%	11.3 days	99.81%	1.3 ng/mL (≈ 3.14 nM)	0.85 ng/mL (≈ 2.05 nM)				
FC1(c2ccccc2)CCC2(CC1)OOC1(O2)C2CC3CC(C2)CC1C3 (stereo not drawn) [OZ274]			7.0/ND days	11/ND %					5.7 ng/mL (≈ 15.9 nM)	5.1 ng/mL (≈ 14.2 nM)		
OC1(Cc2ccccn2)CCC2(CC1)OOC1(O2)C2CC3CC(C2)CC1C3 (stereo not drawn) [OZ275]			7.3/ND days	68/ND %					0.74 ng/mL (≈ 1.99 nM)	0.66 ng/mL (≈ 1.78 nM)		
O=C(C[C@H]1CC[C@]2(CC1)OO[C@]1(O2)C2CC3CC(C2)CC1C3)Nc1nnn[nH]1 [OZ278]			7.3/ND days	56/ND %					39 ng/mL (≈ 100 nM)	23 ng/mL (≈ 59.1 nM)		
O=C1CN(C[C@H]2CC[C@]3(CC2)OOC2(O3)C3CC4CC(C3)CC2C4)CCN1 (stereo partly drawn) [OZ285]			8.7 days	99.81%			1.8 ng/mL (≈ 4.78 nM)	1.3 ng/mL (≈ 3.45 nM)			7.6 days	72%
CC(C)(N)CNC[C@H]1CC[C@]2(CC1)OOC1(O2)C2CC3CC(C2)CC1C3 (stereo partly drawn) [OZ287]			8.3 days	95%			0.83 ng/mL (≈ 2.28 nM)	0.49 ng/mL (≈ 1.34 nM)			7.2 days	68%
Oc1ccc([C@H]2CC[C@]3(CC2)OOC2(O3)C3CC4CC(C3)CC2C4)cc1 (stereo partly drawn) [OZ288]			11.0 days	99.96%			2.7 ng/mL (≈ 7.57 nM)	1.7 ng/mL (≈ 4.77 nM)			8.0 days	82%
c1ccc(CNC[C@H]2CC[C@]3(CC2)OO[C@]2(O3)C3CC4CC(C3)CC2C4)nc1 [OZ292]			7.0 days	74%			0.26 ng/mL (≈ 0.676 nM)	0.19 ng/mL (≈ 0.494 nM)			6.6 days	46%
O=CN1CCN(C(=O)C[C@H]2CC[C@]3(CC2)OO[C@]2(O3)C3CC4CC(C3)CC2C4)CC1 [OZ294]			8.6 days	99.79%			0.63 ng/mL (≈ 1.51 nM)	0.39 ng/mL (≈ 0.932 nM)			7.4 days	70%
O=C(C[C@H]1CC[C@]2(CC1)OO[C@]1(O2)C2CC3CC(C2)CC1C3)NCc1ccccn1 [OZ295]			7.0 days	47%			0.75 ng/mL (≈ 1.82 nM)	0.44 ng/mL (≈ 1.07 nM)			6.4 days	35%
